Consider one compound from US20140243418A1, “RASAGILINE FOR PARKINSON'S DISEASE MODIFICATION” (Teva Pharmaceutical Industries, Ltd., priority 2008, published 2014).

This experiment deals with Early Stage PD patients. The text has this: If, at any stage during the placebo-controlled phase the investigator determines that a subject needs additional anti-PD therapy, the subject will proceed to Phase II of the study. The investigator, aided by a questionnaire, will give careful consideration to the issue of a subject's need for additional anti-PD therapy. Scheduled in-clinic visits will be conducted at baseline and at weeks 4, 12, 24 and 36. Therefore, altogether there will be 5 scheduled visits during this phase. Unscheduled visits may be conducted at any time to assess a subject's need for additional anti-PD therapy, for safety reasons or for any other reason.
III. Additional Efficacy Endpoints • 1. Number (%) of subjects who need additional anti-PD therapy • 2. Time to need of additional anti-PD therapy • 3. Change from baseline to LOV in placebo-controlled phase in Part I of revised UPDRS (version 4)

SMILES strings stand for the structures.

In the case of `C#CCN[C@@H]1CCc2ccccc21` [rasagiline], the “Hazard Ratio, time to additional anti-PD therapy, 1 mg-Placebo Difference” value (PC Phase, rasagiline 1 mg vs placebo, Cox Proportional Hazards Model) came to 0.385. The “Hazard Ratio, time to additional anti-PD therapy, 2 mg-Placebo Difference” value (PC Phase, rasagiline 2 mg vs placebo, Cox Proportional Hazards Model) is listed as 0.379. The “Need for additional anti PD Therapy” value (rasagiline 1 mg and 2 mg, end of the PC phase) is recorded as “beneficial effect”.
